Patent US20160002247A1, “8-SUBSTITUTED IMIDAZOPYRIMIDINONE DERIVATIVE HAVING AUTOTAXIN INHIBITORY ACTIVITY” (THE UNIVERSITY OF TOKYO, priority 2013, published 2016)

What follows are compounds tested against T1, Human autotaxin enzyme (Homo sapiens, UniProt Q13822) (assay: Evaluation of autotaxin inhibitor, Method B (Test Example 2): TG-mTMP fluorescence). Settings: Assay Method B (Test Example 2), human autotaxin; read-out: Inhibitory Activity (autotaxin enzyme inhibitory activity, IC50 class).
T1 construct: purchased R&D System
Type: biochemical
Protocol: (Method B) Evaluation of Autotaxin Inhibitor
Solution A containing 25 mM Tris-HCl buffer (pH7.5), 100 mM NaCl, 5 mM MgCl2 and 0.1% BSA was prepared. Human autotaxin enzyme (purchased from R&D System) was diluted with Solution A, and 5 μL of which was added to a solution of test compound in DMSO. Furthermore, 5 μl of 0.5 μM TG-mTMP in Solution A was added and allowed to react at room temperature for 2 hours. 5 μl of 150 mM EDTA in Solution A was added to quench the reaction, and the fluorescent dye TokyoGreen, which was produced by the reaction, was detected. The fluorescence was detected using ViewLux (PerkinElmer, Inc.) with an excitation wavelength of 480 nm and a fluorescence wavelength of 540 nm.

Cc1cc(=O)n2cc(-c3ccc(Cl)cc3)nc2n1Cc1cccc(F)c1 [Compound 121] and Cc1cc(=O)n2cc(-c3ccc(Cl)cc3)nc2n1C(C)c1cccc(F)c1 (centres unmarked) [Compound 100] fall in the same range of IC50: 10 to 100 nM for the first, 10 to 100 nM for the second.

CCCCCn1c(C2=CCCCC2)cc(=O)n2cc(-c3ccc(Cl)cc3)nc12 [Compound 408] and CCCCCn1c(N2CCCC2)cc(=O)n2cc(-c3ccc(Cl)cc3)nc12 [Compound 187] fall in the same range of IC50: 10 to 100 nM for the first, 10 to 100 nM for the second.

First: CCCCCn1c(OC(CC(C)C)CC(C)C)cc(=O)n2cc(-c3ccc(Cl)cc3)nc12 [Compound 262]
Second: CCCCCn1c(OCCOC)cc(=O)n2cc(-c3ccc(Cl)cc3)nc12 [Compound 269]
The IC50 of the first is higher: 100 to 1000 nM for the first, < 10 nM for the second. The second is the more potent here.

COCCCCn1c(C)cc(=O)n2cc(-c3ccc(Cl)cc3)nc12 [Compound 124] and CCCCCn1c(NC)cc(=O)n2cc(-c3ccc(Cl)cc3)nc12 [Compound 248] fall in the same range of IC50: 10 to 100 nM for the first, 10 to 100 nM for the second.

Compared with COC(=O)c1ccc(Cn2c(C)cc(=O)n3cc(-c4ccc(Cl)cc4)nc23)cc1 [Compound 103], Cc1cc(=O)n2cc(-c3ccc(Cl)cc3)nc2n1Cc1ccc(C(=O)O)cc1 [Compound 99] is higher in IC50: 10 to 100 nM for the first, 100 to 1000 nM for the second.

Compared with CCCCCn1c(C)cc(=O)n2cc(-c3cc4ccccc4s3)nc12 [Compound 142], CCCCCn1c(C)cc(=O)n2cc(-c3ccc4ccccc4c3)nc12 [Compound 153] is higher in IC50: 10 to 100 nM for the first, > 1000 nM for the second. The first is the more potent here.

CCCCCn1c(C)c(CCO)c(=O)n2cc(-c3cccc(Cl)c3)nc12 [Compound 213] and CCCCCn1c(C)c(NC(C)=O)c(=O)n2cc(-c3cccc(Cl)c3)nc12 [Compound 209] fall in the same range of IC50: 100 to 1000 nM for the first, 100 to 1000 nM for the second.

First: CCCCCCCCOc1cc(=O)n2cc(-c3ccc(Cl)cc3)nc2n1CCCCC [Compound 263]
Second: CCCCCn1c(CCC)cc(=O)n2cc(-c3ccc(Cl)cc3)nc12 [Compound 369]
The IC50 of the first is higher: 100 to 1000 nM for the first, < 10 nM for the second. The second is the more potent here.

COC(=O)Cc1ccc(Cn2c(C)cc(=O)n3cc(-c4ccc(Cl)cc4)nc23)cc1 [Compound 112] and Cc1cc(=O)n2cc(-c3ccc(Cl)cc3)nc2n1Cc1ccc(C(N)=O)cc1 [Compound 110] fall in the same range of IC50: 10 to 100 nM for the first, 10 to 100 nM for the second.

CCCCCn1c(C)cc(=O)n2cc(-c3coc4ccccc34)nc12 [Compound 140] and CCCCCn1c(C)cc(=O)n2cc(-c3ccc(F)cc3F)nc12 [Compound 162] fall in the same range of IC50: 100 to 1000 nM for the first, 100 to 1000 nM for the second.

CCCCCn1c(C)cc(=O)n2cc(C3CCCCC3)nc12 [Compound 139] and CCCCCn1c(C)cc(=O)n2cc(-c3ccc4c(c3)CCC4)nc12 [Compound 150] fall in the same range of IC50: 100 to 1000 nM for the first, 100 to 1000 nM for the second.

Compared with CCCCCn1c(N2C[C@H]3CC[C@@H](C2)O3)cc(=O)n2cc(-c3ccc(Cl)cc3)nc12 [Compound 239], CCCCCn1c(N2CCC(C)C2)cc(=O)n2cc(-c3ccc(Cl)cc3)nc12 (centres unmarked) [Compound 257] is lower in IC50: 10 to 100 nM for the first, < 10 nM for the second.

CCCCCn1c(NCC(=O)N2CCN(C)CC2)cc(=O)n2cc(-c3ccc(Cl)cc3)nc12 [Compound 241] and CCCCCn1c(N2CCN(C)CC2)cc(=O)n2cc(-c3ccc(Cl)cc3)nc12 [Compound 232] cannot be ordered by IC50: < 10 nM for the first, < 10 nM for the second.

CCCCCn1c(NC2CCCC2)cc(=O)n2cc(-c3ccc(Cl)cc3)nc12 [Compound 224] and CCCCCn1c(N2CCCCC2)cc(=O)n2cc(-c3ccc(Cl)cc3)nc12 [Compound 246] fall in the same range of IC50: 10 to 100 nM for the first, 10 to 100 nM for the second.

CCCCCn1c(N2CCCC2CCC2CCCCC2)cc(=O)n2cc(-c3ccc(Cl)cc3)nc12 (centres unmarked) [Compound 279] and CCCCCn1c(N2CCCCCC2)cc(=O)n2cc(-c3ccc(Cl)cc3)nc12 [Compound 247] fall in the same range of IC50: 10 to 100 nM for the first, 10 to 100 nM for the second.

CCCCCn1c(-c2ccccc2)cc(=O)n2cc(-c3ccc(Cl)cc3)nc12 [Compound 366] and CCCCCn1c(-c2ccoc2)cc(=O)n2cc(-c3ccc(Cl)cc3)nc12 [Compound 403] fall in the same range of IC50: 10 to 100 nM for the first, 10 to 100 nM for the second.

First: CCCCCn1c(C)c(CCCC)c(=O)n2cc(-c3ccc(Cl)cc3)nc12 [Compound 204]
Second: CCCCCn1c(C)c(F)c(=O)n2cc(-c3ccc(Cl)cc3)nc12 [Compound 206]
The IC50 of the first is higher: 100 to 1000 nM for the first, 10 to 100 nM for the second.

CCCCCn1c(N(C)Cc2ccc(C(=O)OC)cc2)cc(=O)n2cc(-c3ccc(Cl)cc3)nc12 [Compound 195] and CCCCCn1c(NCc2ccc(C(=O)OC)cc2)c(C)c(=O)n2cc(-c3ccc(Cl)cc3)nc12 [Compound 178, methyl 4-((2-(4-chlorophenyl)-6-methyl-5-oxo-8-pentyl-5,8-dihydroimidazo[1,2-a]pyrimidin-7-ylamino)methyl)benzoate] cannot be ordered by IC50: < 10 nM for the first, < 10 nM for the second.

First: Cc1cc(=O)n2cc(-c3ccc(Cl)cc3)nc2n1Cc1ccc(OCCCN(C)C)cc1 [Compound 89]
Second: Cc1cc(=O)n2cc(-c3ccc(Cl)cc3)nc2n1Cc1ccc(C(C)(C)C)cc1 [Compound 123]
The IC50 of the first is lower: < 10 nM for the first, 100 to 1000 nM for the second.

First: CCCCCn1c(COCc2ccccc2)cc(=O)n2cc(-c3ccc(Cl)cc3)nc12 [Compound 371]
Second: CCCCCn1c(OC(C)c2ccccc2)cc(=O)n2cc(-c3ccc(Cl)cc3)nc12 (centres unmarked) [Compound 261]
The IC50 of the first is lower: 10 to 100 nM for the first, 100 to 1000 nM for the second.

First: CCCCCn1c(C)cc(=O)n2c(C=O)c(-c3ccc(Cl)cc3)nc12 [Compound 167, 2-(4-chlorophenyl)-7-methyl-5-oxo-8-pentyl-5,8-dihydroimidazo[1,2-a]pyrimidine-3-carbaldehyde]
Second: CCCCCn1c(C)cc(=O)n2c(C)c(-c3ccc(Br)cc3)nc12 [Compound 169]
The IC50 of the first is higher: 100 to 1000 nM for the first, 10 to 100 nM for the second.

First: CCCCCn1c(N2CCN(CCN3CCOCC3)CC2)cc(=O)n2cc(-c3ccc(Cl)cc3)nc12 [Compound 191]
Second: CCCCCn1c(N2CCN(c3cc(F)cc(F)c3)CC2)cc(=O)n2cc(-c3ccc(Cl)cc3)nc12 [Compound 245]
The IC50 of the first is lower: < 10 nM for the first, 10 to 100 nM for the second. The first is the more potent here.

Compared with CCCCCn1c(-c2cc3ccccc3o2)cc(=O)n2cc(-c3ccc(Cl)cc3)nc12 [Compound 392], CCCCCn1c(-c2cc3ccccc3s2)cc(=O)n2cc(-c3ccc(Cl)cc3)nc12 [Compound 393] is lower in IC50: 100 to 1000 nM for the first, 10 to 100 nM for the second.

O=C(O)c1ccc(CNc2cc(=O)n3cc(-c4ccc(Cl)cc4)nc3n2CCCC(F)(F)F)cc1 [Compound 287] and O=C(O)C1CCN(c2cc(=O)n3cc(-c4ccc(Cl)cc4)nc3n2CCCC(F)(F)F)CC1 [Compound 283] cannot be ordered by IC50: < 10 nM for the first, < 10 nM for the second.

First: CCCCCn1c(-c2ccc(OC)cc2)cc(=O)n2cc(-c3ccc(Cl)cc3)nc12 [Compound 397]
Second: CCCCCn1c(Oc2cccnc2)cc(=O)n2cc(-c3ccc(Cl)cc3)nc12 [Compound 264]
The IC50 of the first is lower: < 10 nM for the first, 100 to 1000 nM for the second. The first is the more potent here.

First: Cc1cc(=O)n2cc(-c3ccc(Cl)cc3)nc2n1Cc1ccc(Oc2ccccc2)cc1 [Compound 93]
Second: Cc1cc(=O)n2cc(-c3ccc(Cl)cc3)nc2n1Cc1ccc2ccccc2c1 [Compound 102]
The IC50 of the first is higher: > 1000 nM for the first, 100 to 1000 nM for the second. The second is the more potent here.

CCCCCn1c(C)c(Cc2ccccc2)c(=O)n2cc(-c3ccc(Cl)cc3)nc12 [Compound 203] and CCCCCn1c(N2CCCC2CCCc2ccccc2)cc(=O)n2cc(-c3ccc(Cl)cc3)nc12 (centres unmarked) [Compound 278] fall in the same range of IC50: 10 to 100 nM for the first, 10 to 100 nM for the second.

Compared with CCCCCn1c(OC23CCC(CC2)CC3)cc(=O)n2cc(-c3ccc(Cl)cc3)nc12 [Compound 267], CCCCCn1c(/C=C/COC)cc(=O)n2cc(-c3ccc(Cl)cc3)nc12 [Compound 423] is lower in IC50: 100 to 1000 nM for the first, 10 to 100 nM for the second.

N#CCCCCn1c(-c2ccc(C(=O)NCCN3CCOCC3)cc2)cc(=O)n2cc(-c3ccc(Cl)cc3)nc12 [Compound 380] and CN(C)CCNC(=O)c1ccc(-c2cc(=O)n3cc(-c4ccc(C#N)cc4)nc3n2CCCCC#N)cc1 [Compound 384] cannot be ordered by IC50: < 10 nM for the first, < 10 nM for the second.

CCCCCn1c(N2CCCC2C(C)CCC)cc(=O)n2cc(-c3ccc(Cl)cc3)nc12 (centres unmarked) [Compound 280] and CCCCCn1c(NCCNC(C)=O)cc(=O)n2cc(-c3ccc(Cl)cc3)nc12 [Compound 236] fall in the same range of IC50: 10 to 100 nM for the first, 10 to 100 nM for the second.

Compared with CCCCCn1c(-c2cnc(N)cn2)cc(=O)n2cc(-c3ccc(Cl)cc3)nc12 [Compound 424], CCCCCn1c(NCc2ccccn2)cc(=O)n2cc(-c3ccc(Cl)cc3)nc12 [Compound 229] is higher in IC50: < 10 nM for the first, 10 to 100 nM for the second.

First: CCCc1cn2c(=O)ccn(CCCc3ccc(Cl)cc3)c2n1 [Compound 129]
Second: Cc1cc(=O)n2cc(-c3ccc(Cl)cc3)nc2n1Cc1ccc(Cl)cc1F [Compound 90]
The IC50 of the first is higher: > 1000 nM for the first, 10 to 100 nM for the second. The second is the more potent here.

Same assay, conditions: Assay Method: Method B (Test Example 2); read-out: Inhibitory Activity (Enzyme Inhibitory Activity, IC50)

CCCC(C)n1c(C)cc(=O)n2cc(-c3ccc(Cl)cc3)nc12 (centres unmarked) [Compound 56] and CCC(=O)C(C)n1c(C)cc(=O)n2cc(-c3ccc(Cl)cc3)nc12 (centres unmarked) [Compound 51] fall in the same range of IC50: 10 to 100 nM for the first, 10 to 100 nM for the second.

Cc1cc(=O)n2cc(-c3ccc(Cl)cc3)nc2n1CCN(C)C [Compound 70] and CCN(CC)CCn1c(C)cc(=O)n2cc(-c3ccc(Cl)cc3)nc12 [Compound 75] fall in the same range of IC50: 100 to 1000 nM for the first, 100 to 1000 nM for the second.

Compared with CCCCCn1c(C)cc(=O)n2cc(-c3ccc(Br)cc3)nc12 [Compound 18], C=CCCCn1c(C)cc(=O)n2cc(-c3ccc(Cl)cc3)nc12 [Compound 43] is higher in IC50: < 10 nM for the first, 10 to 100 nM for the second. The first is the more potent here.

First: Cc1ccc(Cn2c(C)cc(=O)n3cc(-c4ccc(Cl)cc4)nc23)cc1 [Compound 67]
Second: Cc1cccc(Cn2c(C)cc(=O)n3cc(-c4ccc(Cl)cc4)nc23)c1 [Compound 60]
The IC50 of the first is lower: 10 to 100 nM for the first, 100 to 1000 nM for the second. The first is the more potent here.

First: Cc1cc(=O)n2cc(-c3ccc(Cl)cc3)nc2n1CCOC(C)C [Compound 76]
Second: CCOCCn1c(C)cc(=O)n2cc(-c3ccc(Cl)cc3)nc12 [Compound 26]
The IC50 of the first is higher: 100 to 1000 nM for the first, 10 to 100 nM for the second.

First: CCOC(=O)c1ccc(Cn2c(C)cc(=O)n3cc(-c4ccc(Cl)cc4)nc23)cc1 [Compound 86]
Second: Cc1cc(=O)n2cc(-c3ccc(Cl)cc3)nc2n1CCc1ccccc1 [Compound 82]
The IC50 of the first is higher: 100 to 1000 nM for the first, 10 to 100 nM for the second. The second is the more potent here.

Work on Cc1cc(=O)n2cc(-c3ccc(Cl)cc3)nc2n1CCCC(F)(F)F [Compound 59] yielded an IC50 of 10 to 100 nM.
